In US4725598A, “Derivative of dihydroxybenzamide and a pharmaceutical composition having an anti-inflammatory activity” (priority 1983, dated 1988):
Where two headings read alike, the source gives them in different places.

Tests used:
[1] = system: platelet aggregation; experiment: Inhibitory activity of platelet aggregation (sodium arachidonate induced, platelet-rich plasma); type: cell-based; conditions: Oryctolagus cuniculus, rabbit plasma, sodium arachidonate 400 μM, read-out: IC100 (concentration necessary for inhibiting platelet aggregation perfectly)
Experimental: After collecting blood specimen from the auricular vein of a male rabbit of an ordinary race in the presence of citrate, the thus collected blood was subjected to centrifugation to obtain a platelet-rich plasma (PRP) and a platelet-poor plasma (PPP) therefrom. The plasma containing 300,000 platelets/μl was prepared by diluting the PRP with the PPP, and divided equally into two portions.
Into the first portion of the thus obtained plasma mixture, as control, dimethylsulfoxide was added, and then, an aqueous solution of sodium arachidonate as an aggregation agent prepared by dissolving thereof into a saline solution was added to the resultant mixture to adjust the final concentration of the arachidonate therein to 400 μM.
On the other hand, into the second portion thereof, a solution of each of the present compounds shown in Table 1 in dimethylsulfoxide was added, and then, the above-mentioned aqueous solution of sodium arachidonate was added to the resultant mixture.
The platelet aggregation reactions were measured with the aid of a platelet aggregation tracer (model PAT-4A, made by NIKO Bioscience Co., Ltd.) and its IC100 values (the concentration of an agent necessary for inhibiting platelet aggregation perfectly) are shown in Table 1.

[2] = system: granuloma formation; type: in vivo, male Donryu rats; conditions: 10 days
Experimental: The activity of the present compounds in inhibiting the granuloma formation was examined according to the method of Fujimura et al. (refer to "OYO YAKURI", 19(3), 329(1981)) while using male Donryu rats of 5 weeks after birth as follows.
(§1) After burying a paper disk of 13 mm in diameter and 0.26 mm in thickness immersed in an aqueous 2% solution of carboxymethylcellulose (hereinafter referred to as CMC) containing both dihydroxystreptomycin and penicillin (both of 10^6 unit at a rate of 0.1 mg/ml) into the back of each rat under anesthesia by ether, the rats were divided into four groups. To rats of the first group, an aqueous 0.3% solution of CMC was orally administered every day for 10 days, to rat of the second group, an aqueous dispersion of one of the present compounds shown in Table 3 in an aqueous 0.3% solution of CMC was orally administered every day for 10 days and to rat of the third and fourth groups, an aqueous 0.3% solution of CMC containing either indomethacin or prednisolone was orally administered every day for 10 days.
The rate of inhibiting the granuloma formation was obtained from the following formula: [formula] wherein T is the average weight of granuloma in the test group and C is the average weight of granuloma in the control group.

[3] = system: adjuvant arthritis; experiment: Inhibitory activity of adjuvant arthritis; type: in vivo, male Lewis rats; conditions: for Increment of the volume of hind paw after 21 days of injection (I1): at beginning of administration; for Increment of the volume of hind paw after 36 days of injection (I2) / Rate of inhibiting adjuvant arthritis: 14 days
Experimental: The activity of the present compound in inhibiting the adjuvant arthritis was examined while using groups of male Lewis rats of 8 weeks after birth and according to the method of Fujihira et al. (refer to "OYO YAKURI", 5(2), 169, (1971)) as follows.
Groups of 8 rats were used, and to each rat of whole groups under anesthesia by ether, a Freund's complete adjuvant dissolved in mineral oil at a concentration of 0.6 mg/0.1 ml was injected intradermally into the trail thereof.
After 3 weeks of the injection, to each rat of a group an aqueous dispersion of one of the present compounds shown in Table 4 in an aqueous 0.3% solution of CMC was orally administered every day for 14 days, and to each of the control group, the aqueous 0.3% solution of CMC was administered in a similar manner, each rat of the positive control group being treated with the similar oral administration of prednisolone in the aqueous 0.3% solution of CMC. The volume of the hind paw of each rat was measured on the day of starting the administration and on the next day after finishing the administration.
The results of the test are shown in Table 4 as the increment of the volume of the hind paw and the rate of inhibiting the increase of the volume thereof.
The increment of the volume of the hind paw at the beginning of the administration, namely after 21 days of the injection of the complete adjuvant (I1), and the increment of that after the finishing of the injection, namely after 36 days of the injection of the complete adjuvant (I2) are respectively as follows.
wherein V0 is the volume of the hind paw just before the injection, V1 is that after 21 days of the injection and V2 is that after 36 days of the injection.
The rate of inhibiting the increase of the volume of the hind paw, namely the activity of treating the adjuvant arthritis is obtained by the following formula: [formula]

[4] = design: species or system male Donryu rats; conditions: rat, in vivo
Experimental: as §1

[5] = system: migration of polymorphonuclear leukocytes; experiment: Inhibition of migration of polymorphonuclear leukocytes, in vivo pouch-CMC method; design: species or system male Donryu rats
Experimental: The activity of each of the present compounds in in vivo inhibiting the migration of polymorphonuclear leukocytes was examined by the pouch-CMC method presented by Ishikawa (refer to J. Pharmaceut. Soc., Japan, 88, 1472, 1968) using male Donryu rats.
After cutting the hairs on the back of each male Donryu rat at a 5 cm square, 5 ml of air were subcutaneously injected into the hair-cut position, and after 24 hours of the injection, 5 ml of a 0.2% solution of sodium carboxymethylcellulose in a saline was injected into the pouch made by the injected air.
After dividing the rats into 3 groups, an aqueous 0.2% solution of carboxymethylcellulose was orally administered to each rat of the first group at a rate of 1 ml/100 g body weight (as control), and each of the present compounds (Compounds Nos. 1, 2 and 4) was orally administered to each rat of the second group after suspending the compound in an aqueous 0.2% solution of carboxymethylcellulose. Each rat of the third group is orally administered with an aqueous solution of indomethacin as positive control.
After 3 and 6 hours of the injection, the exudates in the pouch were collected from each rat, and the number of polymorphonuclear leukocytes (hereinafter referred to as PMN) exudated was counted and, the results are shown in Table 2.

SMILES	IC100 [1] [µM]	Inhibition rate of exudation of PMN ([5]; after 3 hr, 50 mg/kg oral) [%]	Number of PMN in exudated liquid ([5]; after 3 hr, 50 mg/kg oral)	Inhibition rate of exudation of PMN ([5]; after 6 hr, 50 mg/kg oral) [%]	Number of PMN in exudated liquid ([5]; after 6 hr, 50 mg/kg oral)	Rate of inhibition of granuloma formation ([2]; 25 mg/kg/day oral) [%]	Weight of dried granuloma ([2]; 25 mg/kg/day oral) [mg]	Rate of inhibition of granuloma formation ([2]; 50 mg/kg/day oral) [%]	Weight of dried granuloma ([2]; 50 mg/kg/day oral) [mg]	further results
CCCCNC(=O)c1ccc(O)c(O)c1 [compound 3, N--(n-butyl)-3,4-dihydroxybenzamide]	45	–	–	–	–	–	–	–	–	–
C[C@]12C=CC(=O)C=C1CC[C@@H]1[C@@H]2[C@@H](O)C[C@@]2(C)[C@H]1CC[C@]2(O)C(=O)CO [prednisolone, reference compound]	–	–	–	–	–	–	–	–	–	Rate of inhibition of granuloma formation ([2]; 3 mg/kg/day oral): 45%; Weight of dried granuloma ([2]; 3 mg/kg/day oral): 158 mg; Increment of the volume of hind paw after 21 days of injection (I1) ([3]; 3 mg/kg/day group): 1.27 mL; Increment of the volume of hind paw after 36 days of injection (I2) ([3]; 3 mg/kg/day oral): 0.71 mL; Rate of inhibiting adjuvant arthritis ([3]; 3 mg/kg/day oral): 44%; autopsy findings, gastric [4]: hemorrhage from the gastric mucosa and formation of stomach ulcer were found; autopsy findings, thymus [4]: atrophy of the thymus was significantly found
O=C(NCCCc1ccccc1)c1ccc(O)c(O)c1 [compound 6, N--(ω-phenylpropyl)-3,4-dihydroxybenzamide]	80	–	–	–	–	–	–	–	–	–
O=C(c1ccc(O)c(O)c1)N1CCCCC1 [compound 4, 3,4-dihydroxybenzpiperidide]	65	46.9	2.6 (number/mm^3) × 10^3	25.2	16.3 (number/mm^3) × 10^3	49	146	65	101	–
CN1CCN(C(=O)c2ccc(O)c(O)c2)CC1 [compound 7, 3,4-dihydroxybenz-N--methylpiperazide]	300	–	–	–	–	–	–	–	–	–
O=C(Nc1ccccn1)c1ccc(O)c(O)c1 [Compound No. 2, N--(2-pyridyl)-3,4-dihydroxybenzamide]	25	53.1	2.3 (number/mm^3) × 10^3	37.6	13.6 (number/mm^3) × 10^3	64	98	76	69	Increment of the volume of hind paw after 21 days of injection (I1) ([3]; 25 mg/kg/day group): 1.32 mL; Increment of the volume of hind paw after 36 days of injection (I2) ([3]; 25 mg/kg/day oral): 0.51 mL; Rate of inhibiting adjuvant arthritis ([3]; 25 mg/kg/day oral): 61%; Increment of the volume of hind paw after 21 days of injection (I1) ([3]; 50 mg/kg/day group): 1.30 mL; Increment of the volume of hind paw after 36 days of injection (I2) ([3]; 50 mg/kg/day oral): 0.53 mL; Rate of inhibiting adjuvant arthritis ([3]; 50 mg/kg/day oral): 59%
CCCCCCCCNC(=O)c1ccc(O)c(O)c1 [Compound No. 1, N-(n-octyl)-3,4-dihydroxybenzamide]	< 18	51.0	2.4 (number/mm^3) × 10^3	22.9	16.8 (number/mm^3) × 10^3	53	135	72	80	Increment of the volume of hind paw after 21 days of injection (I1) ([3]; 25 mg/kg/day group): 1.29 mL; Increment of the volume of hind paw after 36 days of injection (I2) ([3]; 25 mg/kg/day oral): 0.65 mL; Rate of inhibiting adjuvant arthritis ([3]; 25 mg/kg/day oral): 50%; Increment of the volume of hind paw after 21 days of injection (I1) ([3]; 50 mg/kg/day group): 1.28 mL; Increment of the volume of hind paw after 36 days of injection (I2) ([3]; 50 mg/kg/day oral): 0.59 mL; Rate of inhibiting adjuvant arthritis ([3]; 50 mg/kg/day oral): 54%
CCCCCCCCCCCCNC(=O)c1ccc(O)c(O)c1 [compound 5, N--(n-dodecyl)-3,4-dihydroxybenzamide]	< 18	–	–	–	–	–	–	–	–	–
COc1ccc2c(c1)c(CC(=O)O)c(C)n2C(=O)c1ccc(Cl)cc1 [indomethacin, reference compound]	–	–	–	–	–	–	–	–	–	Inhibition rate of exudation of PMN ([5]; after 3 hr, 3 mg/kg oral): 20.4%; Number of PMN in exudated liquid ([5]; after 3 hr, 3 mg/kg oral): 3.9 (number/mm^3) × 10^3; Inhibition rate of exudation of PMN ([5]; after 6 hr, 3 mg/kg oral): 22.0%; Number of PMN in exudated liquid ([5]; after 6 hr, 3 mg/kg oral): 17.0 (number/mm^3) × 10^3; Rate of inhibition of granuloma formation ([2]; 3 mg/kg/day oral): 39%; Weight of dried granuloma ([2]; 3 mg/kg/day oral): 175 mg; autopsy findings, gastric [4]: hemorrhage from the gastric mucosa and formation of stomach ulcer were found
